Data on two molecules can be found in patent publication US20130065847A1, “ENDOPARASITICIDAL COMPOSITIONS” (priority 2010, published 2013).

This experiment relates to Cooperia Curticei. Briefly: In-vivo test on Cooperia curticei on sheep using peroral application. The note with it: Monepantel 0.625 mg/kg, Abamectin 0.05 mg/kg; for Efficacy [%]: 100×(C−T)/C of worm count means vs untreated control, days 14-17; for Efficacy [%] / log [Worm count] [geometric mean value] / Reduction worm count [factor] / Reduction log [worm count]: L4 stage, oral, combination 0.625 & 0.05 mg/kg; for Worm count [Geometric mean value]: experimentally induced infection, treated at L4 stage, single oral application, combination 0.625 & 0.05 mg/kg bodyweight, slaughter days 14-17 after treatment, untreated control 4266; for log [Worm count] [geometric mean value]: log transformed worm counts, untreated control 3.631; for Reduction worm count [factor]: observed; for Reduction worm count [factor] / Reduction log [worm count]: vs untreated control. The text has this: In-Vivo Test on Cooperia Curticei on Sheep Using Peroral Application
The study concerned a blinded parallel-group efficacy study against the L4 stage of the subject nematodes. The experimental induced worm burdens of monepantel/abamectin combination treated animals were compared to those of an untreated control group and sheep treated animals with either monepantel or abamectin mono-formulations.
To this end the required larvae were generated first of all through culturing of characterized field isolates. Each animal then received the same dose of L3 (infective) larvae, and their larvae burdens were allowed time to mature. Once the larvae reached the L4 stage, the sheep were allocated to treatment groups 1, 2, 3 and 4 and treated as defined in the Table below:
Oral application using the above described formulations: […]
Two weeks after treatment (days 14-17) the sheep were slaughtered, their gastro-intestinal tracts recovered and processed for enumeration of total worm burdens. The primary measure of efficacy was calculated from the mean worm reduction in groups 2-4 when compared to the untreated control group 1. Efficacies were calculated using the formula
wherein C and T are the worm count means of the Control and Treated groups, respectively.
To this end, worm counts were log transformed as follows: […]

For the molecule `C[C@](C#N)(COc1cc(C#N)ccc1C(F)(F)F)NC(=O)c1ccc(SC(F)(F)F)cc1` [Monepantel, N-((1S)-1-cyano-2-(5-cyano-2-trifluoro-methylphenoxy)-1-methylethyl)-4-trifluoromethylsulfanylbenzamide], the “Efficacy [%]” value is given as 66.0%, the “Worm count [Geometric mean value]” value turned out to be 1453, the “log [Worm count] [geometric mean value]” value stood at 3.165 and the “Reduction worm count [factor]” value is reported as roughly 2.9 factor. The “Reduction log [worm count]” value is given as −0.466.
Turning to abamectin, the “Efficacy [%]” value is 68.3%, the “Worm count [Geometric mean value]” value is 1352, the “log [Worm count] [geometric mean value]” value is listed as 3.134 and the “Reduction worm count [factor]” value is roughly 3.1 factor. Further, the “Reduction log [worm count]” value was −0.497.
